Consider one molecule from publication PMC8579695, “The Stringent Response Inhibits 70S Ribosome Formation in Staphylococcus aureus by Impeding GTPase-Ribosome Interactions” (mBio, 2021).

One experiment addresses RbgA (Staphylococcus aureus, UniProt A0A0H2XK72). Description: GTPase activity assay of wild-type and Atto488-labeled RbgA. The format is biochemical. The settings on record: 100 μM ppGpp, 1 μM GTP, 0.1 μM RA-GTPase, 0.1 μM 70S ribosomes, 37°C, 60 min. The source says:
(§1) To gain further insight into the binding mechanism and how (p)ppGpp reduces the association of RA-GTPases to the ribosomal subunits, we used a stopped-flow technique with fluorescent derivatives of the RA-GTPases (Fig. 3A). Structural predictions of all four RA-GTPases were built by homology modeling using available structures to assess the availability of suitable residues for fluorescence labeling (see Fig. S3A and B) ([43]). Both RbgA and HflX were amenable to covalent linkage to the fluorophore Atto-488 using maleimide chemistry with exposed cysteine residues. […]
(§2) Supplementary file : FIG S3 Labeling sites and GTPase activity of Atto488-labelled proteins. […] Enzymatic activity was monitored by TLC and quantified by using ImageQuant. […]
(§3) GTPase activity assays were performed as previously described ([10]). Briefly, the ability of proteins to hydrolyze GTP was determined by incubating 100 nM recombinant protein with 100 nM S. aureus 70S ribosomes, 1 μM GTP and 2.78 nM [α-^32P]GTP in 40 mM Tris (pH 7.5), 100 mM NaCl (100 mM KCl for RbgA), and 10 mM MgCl2 at 37°C for the indicated times. […] The radioactive spots were exposed to a BAS-MS imaging plate (Fujifilm) and visualized using an LA 7000 Typhoon PhosphorImager (GE Healthcare), and images were quantified using ImageQuant (GE Healthcare).

The target in the next experiment is HflX (Staphylococcus aureus, UniProt Q2FYY9). Put plainly: GTPase activity assay of wild-type and Atto488-labeled HflX. It is filed as biochemical. The settings on record: 100 μM ppGpp, 1 μM GTP, 0.1 μM RA-GTPase, 0.1 μM 70S ribosomes, 37°C, 60 min.
Source text: as §1, §2, §3

HflX, sequence (Q2FYY9 entry or part of it): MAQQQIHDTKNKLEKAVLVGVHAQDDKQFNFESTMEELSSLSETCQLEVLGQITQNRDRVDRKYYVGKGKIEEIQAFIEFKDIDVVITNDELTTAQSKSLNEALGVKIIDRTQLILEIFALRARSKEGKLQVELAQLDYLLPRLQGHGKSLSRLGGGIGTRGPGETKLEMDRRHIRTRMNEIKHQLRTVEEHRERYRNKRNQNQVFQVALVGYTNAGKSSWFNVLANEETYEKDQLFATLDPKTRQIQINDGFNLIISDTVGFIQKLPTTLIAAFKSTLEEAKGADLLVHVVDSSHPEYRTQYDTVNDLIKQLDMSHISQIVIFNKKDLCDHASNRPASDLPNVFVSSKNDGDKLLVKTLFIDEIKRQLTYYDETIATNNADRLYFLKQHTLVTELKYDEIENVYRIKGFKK
RbgA, sequence (A0A0H2XK72 entry or part of it): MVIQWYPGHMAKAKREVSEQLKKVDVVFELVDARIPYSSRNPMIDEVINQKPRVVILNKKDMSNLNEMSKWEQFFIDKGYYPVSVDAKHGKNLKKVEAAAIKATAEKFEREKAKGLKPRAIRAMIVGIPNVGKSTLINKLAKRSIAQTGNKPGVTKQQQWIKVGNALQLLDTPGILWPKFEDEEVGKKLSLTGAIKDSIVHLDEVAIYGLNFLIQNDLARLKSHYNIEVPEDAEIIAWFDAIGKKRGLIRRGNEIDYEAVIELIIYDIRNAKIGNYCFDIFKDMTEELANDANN

Regarding `Nc1nc2c(ncn2[C@@H]2O[C@H](COP(=O)(O)OP(=O)(O)O)[C@@H](OP(=O)(O)OP(=O)(O)O)[C@H]2O)c(=O)[nH]1` [ppGpp], the “inhibition of GTPase activity of Atto488-labeled RbgA” value against RbgA is listed as “can still be inhibited”. Besides, at HflX, the “inhibition of GTPase activity of Atto488-labeled HflX” value is recorded as “can still be inhibited”.
